Publication PMC6085350, “Small molecule inhibitors of RAS-effector protein interactions derived using an intracellular antibody fragment” (Nature Communications, 2018)

Legend:
[1] = tested on: RAS-effector PPI; experiment: RAS biosensor BRET assay (partners not specified); format: cell-based, human
Procedure: The BRET assay was carried out as described elsewhere. A total of 650,000 HEK293T were seeded in each well of a six well plate. Approximately, 24 h later, cells were transfected with an appropriated BRET-based RAS biosensor (i.e. RAS-effector) using Lipofectamine 2000 transfection reagent (Thermo-Fisher). Cells were detached 24 h later and washed with PBS and seeded in a white 96 well plate (clear bottom, PerkinElmer, cat#6005181) in OptiMEM no phenol red medium (Life Technologies) complemented with 4% FBS. Cells were left for 4 h at 37 °C before adding compounds. […] The final concentrations in the cells were 0, 5, 10 and 20 μM (therefore the intermediate 10X concentrations were 0, 50, 100 and 200 μM. Furthermore, 10 μl of 10X compounds were added in each well of the 96 well plate to 0, 5, 10 and 20 μM final concentrations (with final 0.2% DMSO each). Quadruplicates were performed for each point. Cells were left for an additional 20 h at 37 °C before the BRET2 signal reading directly after addition of Coelenterazine 400a substrate (10 μM final) to cells (Cayman Chemicals, cat#16157). BRET2 reading was carried out on an Envision instrument (2103 Multilabel Reader, PerkinElmer) with the BRET2 Dual Emission optical module (515 nm ± 30 and 410 nm ± 80; PerkinElmer).

[2] = tested on: ERK1/2 phosphorylation in H358 cells (KRAS^G12C); experiment: Biomarker phosphorylation assay, pERK, H358; format: cell-based, human; details: H358, 2-20 μM, 3 h, EGF 10 min
Procedure: Fig. 5 Abd-7 results on RAS-dependent signalling pathways and cell viability. a, b DLD-1 (a) or H358 (b) cells were serum-starved for 24 h, incubated in mono-layer with Abd-7 in a range from 2, 5, 10 and 20 μM for 3 h and stimulated with EGF 10 min. Proteins were extracted and separated by SDS-PAGE and transferred to membranes for Western analysis with anti-pAKT, anti-pERK, anti-pan AKT and anti-pan ERK. Anti-cyclophilin B antibody was the loading control. Signal was developed using standard ECL. c–e Effects of compounds Abd-2, Abd-4, Abd-5, Abd-6, and Abd-7 on the viability of human cancer cells lines was assessed for a 2-D culture of DLD-1 (mutant KRAS^G13D) cells and HT1080 cells (mutant NRAS^Q61K). The cells were treated with a dose range from 0 μM to 20 μ and incubated for 72 h when cell viability was assessed using CellTitreGlo. […] Each experiment was repeated at least three times (a, b) and four times (c, d). Where error bars are presented, they correspond to mean values ± SD of biological repeats
A total of 450,000 DLD1 or 640,000 H358 cells were seeded per well of a six well plate. Approximately, 20 h later, the medium was removed, the cells washed twice with PBS and DMEM without FBS was added and left for 24 h. […] Cell lysates were sonicated with a Branson Sonifier and the protein concentrations determined by using the Pierce BCA protein assay kit (Thermo-Fisher). […]

[3] = Caco-2 cell permeability assay; format: in vitro ADME; details: human
[4] = target: PI3KC2; experiment: Kinase panel (KinaseProfiler), second PI3KC2 line; format: biochemical, human; details: PI3KC2 (second of two lines), 10μM
Procedure: Experiments were performed by Eurofins Pharma Discovery Services. The KinaseProfiler™ assay protocol guide can be downloaded from their website: www.eurofins.com/discoveryservices. The guide contains information on the buffer conditions, substrate and reference inhibitor blank used for each kinase.
Supplementary Table 3. Assessment of potential interaction of Abd-7 with a human kinase
Kinase % kinase activity in
A panel of 14 Kinases (relevant to the RAS pathway) has been screened against Abd-7
(10μM) and the kinase activity was measured. […] of activity was observe for all
function of the selected and RAS relevant kinase proteins.

O=C(NCC1COc2ccccc2O1)c1ccco1 (centres unmarked) [Abd-2]
activity in the RAS biosensor BRET assay [1]: do not show activity

COc1nc(-c2cccc3c2OCCO3)ccc1Nc1ccc(CN(C)C)cc1 [Abd-7]
inhibition of ERK1/2 phosphorylation [2]: diminution of pERK levels | Papp A→B [3]: 7.03 ×10⁻⁶ cm/s | Papp B→A [3]: 8.46 ×10⁻⁶ cm/s | % kinase activity in the presence of Abd-7 [4]: 108%
